From PubChem BioAssay AID1996 come the findings set out here.

Molecules are shown by their SMILES. ≈ marks a conversion by molar mass, not a printed value. Non-standard residues stand in square brackets, D forms with d. Residues, ends and D or L forms follow the SMILES beside them. ξ: configuration not given here. *: point of attachment. Cbz = O=C(OCc1ccccc1)*; ξV = CC(C)C(N)C(=O)O Bounds are passed on as bounds.

The conditions of this data set: buffer; pH 7.4; 200.0 µM.
On to `COc1ccc(C(=O)COC(=O)c2ccccn2)cc1OC`, for which the solubility (kinetic) was determined as 44.5 µg/mL (≈ 148 µM). Consider `COc1ccccc1NC(=O)NNC(=O)CCN1CCOCC1`, for which the solubility (kinetic) was above 48.4 µg/mL.

As for `Cc1cccc(N2CCN(C(=S)NC3CCCCC3)CC2)c1C`, the solubility (kinetic) was below 0.2 µg/mL. Consider `O=C(/C=C/c1cccs1)N1CCN(c2ccccc2)CC1`, for which the solubility (kinetic) stood at 1.6 µg/mL (≈ 5.36 µM). For `CCC(=O)Nc1ccc2c(c1)Cc1cc(NC(=O)CC)ccc1-2`, the kinetic solubility was determined as 0.5 µg/mL (≈ 1.62 µM). `CC1CN(C(=O)CS(=O)(=O)Cc2ccc(Cl)cc2)CC(C)O1` (stereo not drawn) showed a kinetic solubility of 46.8 µg/mL (≈ 135 µM). `O=C(Nc1ccc(F)cc1)C1CC(=O)N(Cc2ccco2)C1` (stereo not drawn) yielded a solubility (kinetic) above 45.3 µg/mL. As to `Cc1cc(SCC(=O)N(C)C2CCCCC2)nc2ccccc12`, the solubility (kinetic) worked out at 19.4 µg/mL (≈ 59.1 µM). With `COc1cc(NC(=O)c2ccccc2Cl)c2ncccc2c1`, the solubility (kinetic) was below 0.3 µg/mL.

Molecule `O=C(NCCCN1CCOCC1)C(=O)NCc1ccccc1` showed a solubility (kinetic) above 45.8 µg/mL.

Take `Cc1ccnc(NCc2cc(C)ccc2O)c1`: the solubility (kinetic) came to 6 µg/mL (≈ 26.3 µM). Molecule `O=C(NCc1ccc2c(c1)OCO2)Nc1ccc(Cl)cc1` came in with a solubility (kinetic) of 0.8 µg/mL (≈ 2.63 µM).

`O=c1oc2ccccc2nc1/C=C(\O)c1ccccc1` displayed a kinetic solubility of 21.4 µg/mL (≈ 80.7 µM). In turn, `CC(=O)Nc1ccc(/C=N/N2C(C)CCCC2C)cc1` (stereo not drawn) gave a solubility (kinetic) above 41 µg/mL. Regarding `O=C(NCCCNC(=O)c1cnccn1)c1ccc(Cl)c(Cl)c1`, the solubility (kinetic) came out at 41.4 µg/mL (≈ 117 µM). On to `COc1cc(OC)c(N(C)S(=O)(=O)c2cccc(C(=O)Nc3nccs3)c2)cc1Cl`, for which the solubility (kinetic) was found to be 4.2 µg/mL (≈ 8.98 µM). Regarding `CN1CCC(NC(=O)NC2CCCCC2)CC1`, the solubility (kinetic) was above 35.9 µg/mL. `CC(C)(C)C(=O)OCc1nc(-c2ccc3c(c2)OCCO3)cs1` had a solubility (kinetic) below 0.7 µg/mL.

`COc1ccccc1/C=C/C(=O)Nc1cccnc1` registered a solubility (kinetic) above 38.1 µg/mL. Regarding `Cc1ccc(OCC(=O)NCCO)c(Br)c1`, the solubility (kinetic) is above 43.2 µg/mL. `Cc1c(Cl)cnc(NC(=O)COC(=O)[C@@H](NC(=O)c2ccco2)C(C)C)c1Cl` registered a solubility (kinetic) above 64.2 µg/mL.

Turning to `O=C(Nc1ccc2ccccc2c1)c1ccc(Br)o1`, the kinetic solubility was determined as 4.9 µg/mL (≈ 15.5 µM).

`CC(=O)c1cc(C#N)c(SCc2ccc([N+](=O)[O-])cc2)nc1C` came in with a solubility (kinetic) below 0.2 µg/mL.

`CC(C(=O)N1CCCCCC1)N(c1ccc(Cl)cc1)S(C)(=O)=O` (stereo not drawn) registered a kinetic solubility of 46.8 µg/mL (≈ 130 µM). To `O=C(CSc1nnc(C2CC2)n1C1CC1)c1ccccc1F` belongs above 47.6 µg/mL; to `c1ccc(CCCN2CCOCC2)cc1`, 19.2 µg/mL (≈ 93.5 µM). Molecule `COCCN(C(=O)c1ccco1)c1nc(-c2ccccc2)cs1` displayed a solubility (kinetic) of 5.7 µg/mL (≈ 17.4 µM). Molecule `O=C(NC(=S)Nc1ccccc1Br)c1ccco1` returned a solubility (kinetic) of 3.1 µg/mL (≈ 9.53 µM).

For the molecule `O=C(NCCc1ccccc1F)c1cccc2cccnc12`, the kinetic solubility is 31.4 µg/mL (≈ 107 µM).

`C/C(=C\c1ccc2c(c1)OCO2)C(=O)c1c(C)cc(C)[nH]c1=O` came in with a kinetic solubility above 46.7 µg/mL. As to `Cc1nc2ccccc2c(=O)n1NC(=O)c1c(F)cccc1F`, the kinetic solubility is above 47.3 µg/mL. With `Cc1cc(Nc2ccccc2Cl)c2ccccc2n1`, the kinetic solubility is above 40.3 µg/mL. To `COC(=O)c1ccc(Oc2nc(SC)nc(N(C)C)n2)cc1` belongs 2.1 µg/mL (≈ 6.55 µM); to `Cc1nnc(SCC(=O)N2CCCC2)n(N)c1=O`, above 40.4 µg/mL; to `CCN(c1ccccc1)S(=O)(=O)c1csc(C(N)=O)c1`, 44.3 µg/mL (≈ 143 µM). In turn, `COc1ccc(CNC(=O)COC(=O)c2ccc(S(=O)(=O)N3CCOCC3)cc2)cc1` came in with a solubility (kinetic) of 9.2 µg/mL (≈ 20.5 µM). The figure for `CCN1C(=O)c2ccc(C(=O)Nc3ccc(O)cc3C)cc2C1=O` is above 48.7 µg/mL; for `O=[N+]([O-])c1cnccc1Nc1ccc(Cl)cc1` it is 16.6 µg/mL (≈ 66.5 µM); for `Cc1ccccc1S(=O)(=O)Cc1ccc(C(=O)NC2CC2)o1` it is above 47.9 µg/mL.

`CC(=O)c1ccc(NC(=O)CNC2CCCCC2)cc1.Cl` yielded a kinetic solubility of 38.4 µg/mL. Consider `O=C(COC(=O)c1ccc(F)c(S(=O)(=O)N2CCOCC2)c1)NCc1ccc(Cl)cc1`, for which the kinetic solubility came out at 7.1 µg/mL (≈ 15.1 µM).

With `COc1ccc(NC(=O)c2cc(C)cc(C)c2)cc1[N+](=O)[O-]`, the kinetic solubility was below 0.3 µg/mL. `NC(=O)c1ccc(NC(=O)COC(=O)/C=C/c2ccc(Br)o2)cc1` came in with a kinetic solubility of 7.3 µg/mL (≈ 18.6 µM).

In the case of `CCOc1ccc(-c2cnc3n2CCCCC3)cc1`, the kinetic solubility was 32 µg/mL (≈ 125 µM). `CCOc1ccc(NS(=O)(=O)c2cc(C(=O)NCCN3CCOCC3)ccc2C)cc1`: the kinetic solubility is 66.4 µg/mL (≈ 148 µM). On to `CC1CCCC(NC(=O)CSc2cccc[n+]2[O-])C1C` (stereo not drawn), for which the kinetic solubility is above 44.2 µg/mL. Molecule `Cc1cnc(SCc2cnc(C)nc2N)nc1` gave a solubility (kinetic) above 37.1 µg/mL. Take `Cc1c(C(=O)N(C)Cc2cccc(F)c2)oc2c(Cl)cccc12`: the solubility (kinetic) is 3.6 µg/mL (≈ 10.9 µM). To `O=C(c1ccco1)N1CCN(C(=O)N2CCCC2)CC1` belongs 38.7 µg/mL (≈ 140 µM); to `COc1cc(NC(=O)c2cccnc2SC)cc(OC)c1`, above 45.7 µg/mL; to `O=C1CC(Sc2ccc(Cl)cc2)C(=O)N1Cc1ccncc1` (stereo not drawn), 18.9 µg/mL (≈ 56.8 µM). `O=C(NCCOc1ccc(Cl)cc1)c1ccc2ccccc2n1` showed a solubility (kinetic) of 4 µg/mL (≈ 12.2 µM). `COc1ccc(NC(=O)c2ccccc2)c([N+](=O)[O-])c1` gave a solubility (kinetic) of 2.1 µg/mL (≈ 7.71 µM).

`CSc1ccc(/C=C/C(=O)N2CCCN(C)CC2)cc1.Cl` had a solubility (kinetic) of 44.1 µg/mL. To `O=C(CN1CCOCC1)NNC(=O)c1ccc(Cl)cc1` belongs above 44.7 µg/mL.

As for `COC(=O)C(C)N=Cc1ccccc1` (stereo not drawn), the solubility (kinetic) came out at 21 µg/mL (≈ 110 µM). `O=C(Nc1cc(N2CCOCC2)ncn1)NC1(C(F)(F)F)Oc2ccc(Cl)cc2O1` (stereo not drawn) registered a kinetic solubility of 65.5 µg/mL (≈ 147 µM).

On to `COC(=O)CNC(=O)C(NC(=O)OCc1ccccc1)C(C)C` (stereo not drawn) (Cbz-[ξV]-Gly-OMe), for which the solubility (kinetic) was above 48.4 µg/mL. As for `C=CCNc1oc(-c2cccs2)nc1S(=O)(=O)c1ccccc1`, the solubility (kinetic) worked out at 16.8 µg/mL (≈ 48.5 µM). `ClCC1NCC(c2ccccc2Cl)c2c1[nH]c1ccccc21` (stereo not drawn) had a solubility (kinetic) of 19.3 µg/mL (≈ 58.3 µM).

For `Cc1nn(C)c(C)c1NS(=O)(=O)c1c(C)n[nH]c1C`, the solubility (kinetic) is above 42.5 µg/mL.

`Br.CC(C)(C)c1ccc(C2=CSC3=NCCN23)cc1` displayed a kinetic solubility of 49.4 µg/mL. With `OCCC1CN(CC2CCCCC2)CCN1CC1CCCCC1` (stereo not drawn), the kinetic solubility was above 48.4 µg/mL. With `O=C(NC(Cc1ccc(O)cc1)C(=O)O)c1ccco1` (stereo not drawn), the kinetic solubility is above 41.3 µg/mL. The figure for `CC(=O)N1CCN(C23CC4CC(CC(C4)C2)C3)CC1` is above 39.4 µg/mL; for `O=C(C1CCCO1)N1CCN(C(=S)NC2CC2)CC1` (stereo not drawn) it is above 42.5 µg/mL; for `COc1ccccc1NC(=O)C1=C(C)NC(=O)NC1c1ccco1` (stereo not drawn) it is above 49.1 µg/mL.

`O=C1CC(c2ccccc2)CN1` (stereo not drawn) displayed a solubility (kinetic) above 24.2 µg/mL. `COc1cc(NS(=O)(=O)c2cn(C)cn2)cc(OC)c1` came in with a kinetic solubility of 8.9 µg/mL (≈ 29.9 µM).

For `O=C(NCCCNC(=O)c1cc(Cl)ccc1Cl)c1cnccn1`, the solubility (kinetic) is 45.4 µg/mL (≈ 129 µM). The molecule `CCOc1ccc(Cn2cc(F)c(=O)[nH]c2=O)cc1` displayed a kinetic solubility above 39.6 µg/mL. `CC(=O)Nc1ccc(S(=O)(=O)NC2CC3CCC2C3)cc1` (stereo not drawn) returned a solubility (kinetic) above 46.3 µg/mL. `O=C(CCCc1ccccc1)Nc1cccc([N+](=O)[O-])c1` registered a solubility (kinetic) of 26.4 µg/mL (≈ 92.9 µM).

The molecule `C=CCNC(=O)COc1c(C)ccc(C)c1C` showed a kinetic solubility above 35 µg/mL. The molecule `COc1ccc(CCNc2nc(-c3ccncc3)cs2)cc1OC` showed a solubility (kinetic) of 35.9 µg/mL (≈ 105 µM).

Molecule `N#Cc1ccc(C(=O)OCC(=O)N2CCOCC2)cc1` gave a kinetic solubility above 41.1 µg/mL.

The molecule `Cc1cc(NC(=O)c2cccc(C)c2[N+](=O)[O-])no1` displayed a solubility (kinetic) below 0.2 µg/mL. To `Cc1c([N+](=O)[O-])c([N+](=O)[O-])nn1CC(=O)N1CCOCC1` belongs above 44.9 µg/mL. `O=C(NCc1cccnc1)Nc1ccc(Br)cc1Cl` displayed a kinetic solubility of 19.2 µg/mL (≈ 56.4 µM). The figure for `COC(OC)c1ccc(C#N)c(SCc2ccc(C)cc2)n1` is 0.4 µg/mL (≈ 1.27 µM). `COc1ccc(OCCC(=O)OCC(=O)NCCC2=CCCCC2)cc1`: the solubility (kinetic) is above 54.2 µg/mL. Take `Cc1ccc2c(C)c(C(=O)NCCN3CCCC(O)C3)oc2c1C` (stereo not drawn): the kinetic solubility is 42.3 µg/mL (≈ 128 µM).

`CC(C)CCN(C(=O)c1ccccn1)c1c(N)n(Cc2ccccc2)c(=O)[nH]c1=O` registered a kinetic solubility of 56.9 µg/mL (≈ 140 µM). Regarding `COC(=O)c1[nH]c2ccccc2c1NC(=O)C(C)N1CC(C)OC(C)C1` (stereo not drawn), the solubility (kinetic) was above 53.9 µg/mL.

As for `CC(=O)Nc1ccc(S(=O)(=O)N2CCSC2)cc1`, the kinetic solubility came to 29.8 µg/mL (≈ 104 µM).

In the case of `O=C(O)CNC(=O)/C=C/c1c(Cl)cccc1Cl`, the kinetic solubility was above 41.1 µg/mL. Take `N#C/C(=C\c1cc(Br)ccc1F)C(=O)NC1CC1`: the solubility (kinetic) is 13.1 µg/mL (≈ 42.4 µM). To `O=C(O)CC1(CC(=O)Nc2ccc3sccc3c2)CCCCC1` belongs 42.6 µg/mL (≈ 129 µM); to `COc1ccc(C(O)Cn2cc([N+](=O)[O-])nc2C)cc1` (stereo not drawn), 39 µg/mL (≈ 141 µM); to `Cn1c(=O)c2c(nc3n2CC(COc2ccccc2)O3)n(C)c1=O` (stereo not drawn), above 49.2 µg/mL. For `COc1ccccc1/C=C/C(=O)OCC(=O)NCc1ccc2c(c1)OCO2`, the solubility (kinetic) came to 6.3 µg/mL (≈ 17.1 µM).

Turning to `Cc1onc(-c2ccccc2Cl)c1C(=O)N1CCCCCC1`, the kinetic solubility is above 47.8 µg/mL. In the case of `Cc1cccc(C(CC(=O)NCc2ccco2)c2ccccc2)c1O` (stereo not drawn), the solubility (kinetic) was above 50.3 µg/mL.

`Cc1nc(N(C)C)c2sc(=S)n(Cc3ccccc3)c2n1`: the kinetic solubility was below 0.2 µg/mL. With `COc1ccc(/C=C/C2=CC(C)(C)NC(=S)N2)cc1`, the solubility (kinetic) was determined as 9.4 µg/mL (≈ 34.3 µM). Turning to `COc1ccc(C(=O)C23CN4CN(CN(C4)C2)C3)cc1`, the solubility (kinetic) was above 41 µg/mL. Molecule `Cc1ccc(/C=C2\SC(=S)N(c3cccnc3)C2=O)cc1` showed a kinetic solubility below 0.3 µg/mL.

In the case of `CSCCC(NC(=O)c1ccccc1Cl)C(=O)NCCc1ccccn1` (stereo not drawn), the kinetic solubility is above 58.8 µg/mL. For the molecule `COC(=O)c1scc(C)c1NC(=O)c1ccc(Cl)cc1`, the kinetic solubility was found to be 21.3 µg/mL (≈ 68.8 µM).

For the molecule `Cc1cc(=O)[nH]c(SCC(=O)NCC2CCCO2)n1` (stereo not drawn), the solubility (kinetic) is above 42.5 µg/mL. To `CCCOc1cccc(C(=O)NCCNC(=O)c2ccc(C)nc2)c1` belongs above 51.2 µg/mL; to `COc1cc(Nc2ncnc(N)n2)cc(OC)c1`, above 37.1 µg/mL.

The molecule `CN(C)C(CNC(=O)c1coc2ccccc2c1=O)c1ccccc1` (stereo not drawn) displayed a solubility (kinetic) above 50.5 µg/mL.
